Where a SMILES comes first, the peptide text is derived from it. [ ]: non-standard residue; d: D form. The star is where a group is joined. pNA = O=[N+]([O-])c1ccc(N*)cc1
Experiments:
[1] = biological target: T1, Human tissue plasminogen activator (tPA) (Two chains, Sigma) (Homo sapiens, UniProt P00750); experiment: In vitro chromogenic assay for tissue plasminogen activator; format: biochemical; conditions: substrate concentration stated equal to Km under present assay conditions; pH 7.5, ambient temperature; read-out: Km (S2288)
T1 construct: purchased Sigma
T1 sequence (P00750 311-562 limits assumed): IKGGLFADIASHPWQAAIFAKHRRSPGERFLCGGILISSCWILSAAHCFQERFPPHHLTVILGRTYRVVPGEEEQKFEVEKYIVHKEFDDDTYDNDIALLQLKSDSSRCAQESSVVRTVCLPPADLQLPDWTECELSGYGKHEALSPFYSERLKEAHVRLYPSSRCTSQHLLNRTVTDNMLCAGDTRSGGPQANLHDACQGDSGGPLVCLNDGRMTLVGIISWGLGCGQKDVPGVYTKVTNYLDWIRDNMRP
T1 sequence (P00750 36-310 partner limits assumed): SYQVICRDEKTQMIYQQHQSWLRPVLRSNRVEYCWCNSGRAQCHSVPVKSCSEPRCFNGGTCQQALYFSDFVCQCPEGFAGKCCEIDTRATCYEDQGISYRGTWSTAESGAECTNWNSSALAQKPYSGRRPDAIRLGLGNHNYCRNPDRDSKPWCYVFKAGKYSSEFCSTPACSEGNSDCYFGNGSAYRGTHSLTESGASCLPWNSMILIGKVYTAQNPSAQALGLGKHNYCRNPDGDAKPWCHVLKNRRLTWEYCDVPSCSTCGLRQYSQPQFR
Procedure: (§1) The activities were determined as an initial rate of cleavage of the peptide p-nitroanilide by the enzyme. The cleavage product, p-nitroaniline, absorbs at 405 nm with a molar extinction coefficient of 9920M^-1 cm^-1.
(§2) 50 mM TrisHCl, 150 mM NaCl, 2.5 mM CaCl2, and 0.1% polyethylene glycol 6000, pH 7.5.
3. Human tissue plasminogen activator (tPA) (Two chains, Sigma) stock solution: 1 mg/mL, stored at -80° C. (working solution (2X): 1361 ng/mL in assay buffer, prepare prior to use).
3. S2288 (tPA assay) stock solution: 10 mM in dH2 O, stored at 4° C. (working solution (4X): 1484 μM in assay buffer). (All substrate working solutions were prepared on assay day […].)
Assays were performed in 96-well microtiter plates in a total volume of 200 μl. […] Concentrations of the standard inhibitor compound in the assay were from 5 μM to 0.021 μM in 1 to 3 dilution. Concentration of the test compounds in the assay typically were from 10 μM to 0.041 μM in 1 to 3 dilution. […]
(§3) The enzyme kinetics were measured at 405 nm, at 10 seconds interval, for five minutes in a THERMOmax plate reader at ambient temperature.
(§4) Enzyme rates were calculated as mOD/min based on the first two minutes readings. The IC50 values were determined by fitting the data to the log-logit equation (linear) or the Morrison equation (non-linear) with an EXCEL spread-sheet. […]

[2] = biological target: T2, Human thrombin (factor IIa) (Homo sapiens, UniProt P00734); experiment: In vitro chromogenic assay for thrombin; format: biochemical; conditions: substrate concentration stated equal to Km under present assay conditions; pH 7.5, ambient temperature; read-out: Km (S2302)
T2 construct: Human thrombin stock solution; purchased Enzyme Research Lab
Procedure: as §1, §2
2. Human thrombin stock solution: Stored at -80° C. (working solution (2X): 1200 ng/mL or 40 nM in assay buffer, prepare prior to use).
2. S2302 (Thrombin assay) stock solution: 10 mM in dH2 O, stored at 4° C. (working solution (4X): 1200 μM in assay buffer).
Assays were performed in 96-well microtiter plates in a total volume of 200 μl. […] Concentrations of the standard inhibitor compound in the assay were from 5 μM to 0.021 μM in 1 to 3 dilution. Concentration of the test compounds in the assay typically were from 10 μM to 0.041 μM in 1 to 3 dilution. For potent test compounds, the concentrations used in the factor Xa assay were further diluted 100 fold (100 nM to 0.41 nM) or 1000 fold (10 nM to 0.041 nM). […]
as §3, §4

| Km [1] [µM] | Km [2] [µM] | SMILES |
| --- | --- | --- |
| 371 | – | CC[C@@H](C)[C@@H](N)C(=O)N1CCC[C@H]1C(=O)N[C@@H](CCCN=C(N)N)C(=O)Nc1ccc([N+](=O)[O-])cc1 [S2288] (H-[dI]-Pro-Arg-pNA) |
| – | 300 | N=C(N)NCCC[C@H](NC(=O)[C@H](Cc1ccccc1)NC(=O)[C@H]1CCCN1)C(=O)Nc1ccc([N+](=O)[O-])cc1 [S2302] (H-[dP]-Phe-Arg-pNA) |

Reference: patent publication US5849759A, “Naphthyl-substituted benzimidazole derivatives as anti-coagulants” (Berlex Laboratories, Inc., priority 1995, dated 1998)
